Where two headings read alike, the source gives them in different places.
Experiments:
[1] = Example 4 Group A: safety (adverse events) in healthy volunteers; assay type: in vivo, human
Description: Six sequential cohorts of 8 health volunteers per cohort were randomized via a computer-generated randomization list in the ratio of 2:6. Two of the healthy volunteers (HV) received placebo and the remaining six received Compound I under fasted conditions at single ascending doses of 10, 25, 50, 150, or 300 mg, or multiple doses at 300 mg QD for 7 days (below, “Group A”).
(§1) For Groups A and B, dosing occurred between approximately 08:00 AM and 10:00 AM on each dosing day. Dosing was fasted for all subjects in Groups A and B. For fasted dosing, subjects observed a fasting period of approximately 10 hours prior to each dose and for an additional 4 hours post-dose.
Safety measurements included clinical history, routine laboratory evaluation, physical examination, 12-lead ECG, vital signs, adverse event (AE) assessment.

[2] = Example 4 Group B: plasma pharmacokinetics in genotype 1 HCV-infected subjects (LC/MS/MS); conditions: human, in vivo, fasted; for AUC(0-inf) / Cmax / half-life: mean ± SD; for AUC(0-inf): read-out: AUC∞ of Compound I; for Cmax: read-out: Cmax of Compound I; for half-life: read-out: t1/2 of Compound I (converted); for Tmax: median, read-out: Tmax of Compound I
Description: Five sequential cohorts of 3 HCV-infected subjects (HCV) per cohort received under fasted conditions open-label Compound I at single ascending doses of 10, 25, 50, 150, and 300 mg (below, “Group B”).
Compound I was provided as size 0, white, hard hydroxypropyl methylcellulose (HPMC) capsules for oral administration at 5 mg, 25 mg, and 50 mg strengths. The same powder blend containing 33.3% weight/weight (w/w) Compound I, a diluent, and a disintegrant is used to fill the capsules for all dose strengths. Matching placebo capsules will also be provided. Storage conditions will be provided on the study drug container label.
as §1
Plasma samples were obtained up to 120 hours after dosing and the levels of Compound I and its Nucleoside metabolite were measured by using validated LC/MS/MS methodology. Plasma pharmacokinetic parameters were obtained by using non-compartmental analysis with parameters reported as mean±standard deviation (SD) except for Tmax where median (min-max) is shown.

CC(C)OC(=O)[C@@H](C)N[P@@](=O)(OC[C@H]1O[C@@H](n2ccc(=O)[nH]c2=O)[C@](C)(Cl)[C@@H]1O)Oc1ccccc1 [Compound I]
Adverse event: Abdominal discomfort ([1]; 10 mg single dose (n = 6)): 0 n, % | Adverse event: Abnormal feces ([1]; 10 mg single dose (n = 6)): 0 n, % | Adverse event: Constipation ([1]; 10 mg single dose (n = 6)): 0 n, % | Adverse event: Dizziness ([1]; 10 mg single dose (n = 6)): 0 n, % | Adverse event: Dry mouth ([1]; 10 mg single dose (n = 6)): 0 n, % | Adverse event: Dry skin ([1]; 10 mg single dose (n = 6)): 0 n, % | Adverse event: Erythema ([1]; 10 mg single dose (n = 6)): 0 n, % | Adverse event: Flushing ([1]; 10 mg single dose (n = 6)): 0 n, % | Adverse event: Headache ([1]; 10 mg single dose (n = 6)): 0 n, % | Adverse event: Menstruation delayed ([1]; 10 mg single dose (n = 6)): 0 n, % | Adverse event: Musculoskeletal stiffness ([1]; 10 mg single dose (n = 6)): 0 n, % | Adverse event: Nausea ([1]; 10 mg single dose (n = 6)): 0 n, % | Adverse event: Palpitations ([1]; 10 mg single dose (n = 6)): 0 n, % | Adverse event: Pancreatic enzymes increased ([1]; 10 mg single dose (n = 6)): 0 n, % | Adverse event: Procedural nausea ([1]; 10 mg single dose (n = 6)): 0 n, % | Adverse event: Vessel puncture site bruise ([1]; 10 mg single dose (n = 6)): 0 n, % | Adverse event: Vessel puncture site pain ([1]; 10 mg single dose (n = 6)): 0 n, % | Adverse event: Vomiting ([1]; 10 mg single dose (n = 6)): 0 n, % | Subjects with AE ([1]; 10 mg single dose (n = 6)): 0 n, % | Adverse event: Abdominal discomfort ([1]; 25 mg single dose (n = 6)): 0 n, % | Adverse event: Abnormal feces ([1]; 25 mg single dose (n = 6)): 0 n, % | Adverse event: Constipation ([1]; 25 mg single dose (n = 6)): 0 n, % | Adverse event: Dizziness ([1]; 25 mg single dose (n = 6)): 0 n, % | Adverse event: Dry mouth ([1]; 25 mg single dose (n = 6)): 0 n, % | Adverse event: Dry skin ([1]; 25 mg single dose (n = 6)): 0 n, % | Adverse event: Erythema ([1]; 25 mg single dose (n = 6)): 0 n, % | Adverse event: Flushing ([1]; 25 mg single dose (n = 6)): 0 n, % | Adverse event: Headache ([1]; 25 mg single dose (n = 6)): 0 n, % | Adverse event: Menstruation delayed ([1]; 25 mg single dose (n = 6)): 0 n, % | Adverse event: Musculoskeletal stiffness ([1]; 25 mg single dose (n = 6)): 0 n, % | Adverse event: Nausea ([1]; 25 mg single dose (n = 6)): 0 n, % | Adverse event: Palpitations ([1]; 25 mg single dose (n = 6)): 0 n, % | Adverse event: Pancreatic enzymes increased ([1]; 25 mg single dose (n = 6)): 1 (16.7) n, % | Adverse event: Procedural nausea ([1]; 25 mg single dose (n = 6)): 1 (16.7) n, % | Adverse event: Vessel puncture site bruise ([1]; 25 mg single dose (n = 6)): 0 n, % | Adverse event: Vessel puncture site pain ([1]; 25 mg single dose (n = 6)): 0 n, % | Adverse event: Vomiting ([1]; 25 mg single dose (n = 6)): 0 n, % | Subjects with AE ([1]; 25 mg single dose (n = 6)): 2 (33.3) n, % | Adverse event: Abdominal discomfort ([1]; 50 mg single dose (n = 6)): 1 (16.7) n, % | Adverse event: Abnormal feces ([1]; 50 mg single dose (n = 6)): 0 n, % | Adverse event: Constipation ([1]; 50 mg single dose (n = 6)): 0 n, % | Adverse event: Dizziness ([1]; 50 mg single dose (n = 6)): 1 (16.7) n, % | Adverse event: Dry mouth ([1]; 50 mg single dose (n = 6)): 0 n, % | Adverse event: Dry skin ([1]; 50 mg single dose (n = 6)): 0 n, % | Adverse event: Erythema ([1]; 50 mg single dose (n = 6)): 0 n, % | Adverse event: Flushing ([1]; 50 mg single dose (n = 6)): 0 n, % | Adverse event: Headache ([1]; 50 mg single dose (n = 6)): 1 (16.7) n, % | Adverse event: Menstruation delayed ([1]; 50 mg single dose (n = 6)): 0 n, % | Adverse event: Musculoskeletal stiffness ([1]; 50 mg single dose (n = 6)): 0 n, % | Adverse event: Nausea ([1]; 50 mg single dose (n = 6)): 0 n, % | Adverse event: Palpitations ([1]; 50 mg single dose (n = 6)): 0 n, % | Adverse event: Pancreatic enzymes increased ([1]; 50 mg single dose (n = 6)): 0 n, % | Adverse event: Procedural nausea ([1]; 50 mg single dose (n = 6)): 0 n, % | Adverse event: Vessel puncture site bruise ([1]; 50 mg single dose (n = 6)): 0 n, % | Adverse event: Vessel puncture site pain ([1]; 50 mg single dose (n = 6)): 0 n, % | Adverse event: Vomiting ([1]; 50 mg single dose (n = 6)): 0 n, % | Subjects with AE ([1]; 50 mg single dose (n = 6)): 2 (33.3) n, % | Adverse event: Abdominal discomfort ([1]; 150 mg (n = 6)): 1 (16.7) n, % | Adverse event: Abnormal feces ([1]; 150 mg (n = 6)): 2 (33.3) n, % | Adverse event: Constipation ([1]; 150 mg (n = 6)): 0 n, % | Adverse event: Dizziness ([1]; 150 mg (n = 6)): 2 (33.3) n, % | Adverse event: Dry mouth ([1]; 150 mg (n = 6)): 1 (16.7) n, % | Adverse event: Dry skin ([1]; 150 mg (n = 6)): 0 n, % | Adverse event: Erythema ([1]; 150 mg (n = 6)): 1 (16.7) n, % | Adverse event: Flushing ([1]; 150 mg (n = 6)): 1 (16.7) n, % | Adverse event: Headache ([1]; 150 mg (n = 6)): 1 (16.7) n, % | Adverse event: Menstruation delayed ([1]; 150 mg (n = 6)): 0 n, % | Adverse event: Musculoskeletal stiffness ([1]; 150 mg (n = 6)): 0 n, % | Adverse event: Palpitations ([1]; 150 mg (n = 6)): 0 n, % | Adverse event: Pancreatic enzymes increased ([1]; 150 mg (n = 6)): 0 n, % | Adverse event: Procedural nausea ([1]; 150 mg (n = 6)): 0 n, % | Adverse event: Vessel puncture site bruise ([1]; 150 mg (n = 6)): 0 n, % | Adverse event: Vessel puncture site pain ([1]; 150 mg (n = 6)): 0 n, % | Adverse event: Vomiting ([1]; 150 mg (n = 6)): 1 (16.7) n, % | Subjects with AE ([1]; 150 mg (n = 6)): 4 (66.7) n, % | Adverse event: Abdominal discomfort ([1]; 300 mg QD x 7 days (n = 6)): 0 n, % | Adverse event: Abnormal feces ([1]; 300 mg QD x 7 days (n = 6)): 0 n, % | Adverse event: Constipation ([1]; 300 mg QD x 7 days (n = 6)): 0 n, % | Adverse event: Dizziness ([1]; 300 mg QD x 7 days (n = 6)): 0 n, % | Adverse event: Dry mouth ([1]; 300 mg QD x 7 days (n = 6)): 0 n, % | Adverse event: Dry skin ([1]; 300 mg QD x 7 days (n = 6)): 0 n, % | Adverse event: Erythema ([1]; 300 mg QD x 7 days (n = 6)): 0 n, % | Adverse event: Flushing ([1]; 300 mg QD x 7 days (n = 6)): 0 n, % | Adverse event: Headache ([1]; 300 mg QD x 7 days (n = 6)): 0 n, % | Adverse event: Menstruation delayed ([1]; 300 mg QD x 7 days (n = 6)): 1 (16.7) n, % | Adverse event: Musculoskeletal stiffness ([1]; 300 mg QD x 7 days (n = 6)): 0 n, % | Adverse event: Nausea ([1]; 300 mg QD x 7 days (n = 6)): 0 n, % | Adverse event: Palpitations ([1]; 300 mg QD x 7 days (n = 6)): 1 (16.7) n, % | Adverse event: Pancreatic enzymes increased ([1]; 300 mg QD x 7 days (n = 6)): 0 n, % | Adverse event: Procedural nausea ([1]; 300 mg QD x 7 days (n = 6)): 0 n, % | Adverse event: Vessel puncture site bruise ([1]; 300 mg QD x 7 days (n = 6)): 1 (16.7) n, % | Adverse event: Vessel puncture site pain ([1]; 300 mg QD x 7 days (n = 6)): 0 n, % | Adverse event: Vomiting ([1]; 300 mg QD x 7 days (n = 6)): 0 n, % | Subjects with AE ([1]; 300 mg QD x 7 days (n = 6)): 2 (33.3) n, % | Adverse event: Abdominal discomfort ([1]; 300 mg single dose (n = 6)): 0 n, % | Adverse event: Abnormal feces ([1]; 300 mg single dose (n = 6)): 0 n, % | Adverse event: Constipation ([1]; 300 mg single dose (n = 6)): 0 n, % | Adverse event: Dizziness ([1]; 300 mg single dose (n = 6)): 1 (16.7) n, % | Adverse event: Dry mouth ([1]; 300 mg single dose (n = 6)): 0 n, % | Adverse event: Dry skin ([1]; 300 mg single dose (n = 6)): 0 n, % | Adverse event: Erythema ([1]; 300 mg single dose (n = 6)): 0 n, % | Adverse event: Flushing ([1]; 300 mg single dose (n = 6)): 0 n, % | Adverse event: Headache ([1]; 300 mg single dose (n = 6)): 1 (16.7) n, % | Adverse event: Menstruation delayed ([1]; 300 mg single dose (n = 6)): 0 n, % | Adverse event: Musculoskeletal stiffness ([1]; 300 mg single dose (n = 6)): 1 (16.7) n, % | Adverse event: Nausea ([1]; 300 mg single dose (n = 6)): 1 (16.7) n, % | Adverse event: Palpitations ([1]; 300 mg single dose (n = 6)): 0 n, % | Adverse event: Pancreatic enzymes increased ([1]; 300 mg single dose (n = 6)): 0 n, % | Adverse event: Procedural nausea ([1]; 300 mg single dose (n = 6)): 0 n, % | Adverse event: Vessel puncture site bruise ([1]; 300 mg single dose (n = 6)): 1 (16.7) n, % | Adverse event: Vessel puncture site pain ([1]; 300 mg single dose (n = 6)): 0 n, % | Adverse event: Vomiting ([1]; 300 mg single dose (n = 6)): 0 n, % | Subjects with AE ([1]; 300 mg single dose (n = 6)): 3 (50.0) n, % | AUC(0-inf) ([2]; 10 mg single dose): 40 ± 12.6 ng·h/mL | Cmax ([2]; 10 mg single dose): 26.1 ± 11.9 ng/mL | half-life ([2]; 10 mg single dose): 1.47 ± 0.7 h | Tmax ([2]; 10 mg single dose): 0.5 h | AUC(0-inf) ([2]; 25 mg single dose): 140 ± 68.8 ng·h/mL | Cmax ([2]; 25 mg single dose): 68.4 ± 18.7 ng/mL | half-life ([2]; 25 mg single dose): 0.97 ± 0.29 h | Tmax ([2]; 25 mg single dose): 1 h | AUC(0-inf) ([2]; 50 mg single dose): 197 ± 40.1 ng·h/mL | Cmax ([2]; 50 mg single dose): 91.9 ± 10.7 ng/mL | half-life ([2]; 50 mg single dose): 1.19 ± 0.46 h | Tmax ([2]; 50 mg single dose): 1 h | AUC(0-inf) ([2]; 150 mg single dose): 664 ± 160 ng·h/mL | Cmax ([2]; 150 mg single dose): 297 ± 34 ng/mL | half-life ([2]; 150 mg single dose): 1.13 ± 0.29 h | Tmax ([2]; 150 mg single dose): 0.5 h | AUC(0-inf) ([2]; 300 mg single dose): 818 ± 256 ng·h/mL | Cmax ([2]; 300 mg single dose): 367 ± 537 ng/mL | half-life ([2]; 300 mg single dose): 1.58 ± 0.02 h | Tmax ([2]; 300 mg single dose): 1 h
